Activity calls are given as the source filed them. No cut-off for these calls is given here.
How the values were obtained:
[1] = system: Human immunodeficiency virus 1; experiment: Concentration required to reduced HIV-1-induced cytopathic effect by 50%in CEM cells; type: functional; settings: Human immunodeficiency virus 1, CCRF-CEM
[2] = system: Human immunodeficiency virus 1; experiment: Cytotoxic concentration (anti-HIV activity) required to reduce […] by 50% in MT-4 cells; type: functional; settings: Human immunodeficiency virus 1, MT4
[3] = system: Human immunodeficiency virus 1; experiment: Effective concentration (anti-HIV activity) required to reduce HIV-1 induced cytopathic effect by 50% in MT-4 cells; type: functional, organism-based; settings: Human immunodeficiency virus 1, MT4
[4] = system: Human immunodeficiency virus 1; experiment: Effective concentration (anti-HIV activity) required to reduce HIV-1 induced cytopathic effect by 50%in CEM cells; type: functional, organism-based; settings: Human immunodeficiency virus 1, CCRF-CEM
[5] = system: Human immunodeficiency virus 1; experiment: Selectivity index as the ratio of CC50 to that of EC50 value in MT cells; type: functional
[6] = Selectivity index as the ratio of CC50 to that of EC50 value in CEM cells; type: functional, CCRF-CEM
[7] = biological target: Human immunodeficiency virus type 1 reverse transcriptase (Human immunodeficiency virus 1, UniProt Q72547); experiment: HIV-1 reverse transcriptase (RT) activity using Poly (rC)/oligo (dG) as template/primer and [3H]dGTP
[8] = system: Human immunodeficiency virus 1; experiment: Concentration required to reduce CEM cell viability by 50%; settings: Human immunodeficiency virus 1, CCRF-CEM
[9] = Selectivity index as the ratio of CC50 to that of EC50 value.; type: functional
[10] = system: Human immunodeficiency virus 1; experiment: (§1) Concentration required to reduced HIV-1-induced cytopathic effect by 50% in CEM cells; type: functional; settings: Human immunodeficiency virus 1, CCRF-CEM
[11] = system: Human immunodeficiency virus 1; experiment: Anti-HIV-1 activity against mutant HIV-1 strain (100Leu-Ile) in CEM cells; type: functional, organism-based; settings: Human immunodeficiency virus 1, CCRF-CEM
[12] = system: Human immunodeficiency virus 1; experiment: Anti-HIV-1 activity against mutant HIV-1 strain (103Lys-Asn) in CEM cells; type: functional, organism-based; settings: Human immunodeficiency virus 1, CCRF-CEM
[13] = system: Human immunodeficiency virus 1; experiment: Anti-HIV-1 activity against mutant HIV-1 strain (138Glu-Lys) in CEM cells; type: functional, organism-based; settings: Human immunodeficiency virus 1, CCRF-CEM
[14] = system: Human immunodeficiency virus 1; experiment: Anti-HIV-1 activity against mutant HIV-1 strain(188 Tyr-His) in CEM cells; type: functional, organism-based; settings: Human immunodeficiency virus 1, CCRF-CEM
[15] = system: Human immunodeficiency virus 1; experiment: Anti-HIV-1 activity against mutant HIV-1 strain (HIV-1IIIB) in CEM cells; type: functional, organism-based; settings: Human immunodeficiency virus 1, CCRF-CEM
[16] = system: Human immunodeficiency virus 1; experiment: Anti-HIV-1 activity against mutant HIV-1 strain(181 Tyr-Cys) in CEM cells; type: functional, organism-based; settings: Human immunodeficiency virus 1, CCRF-CEM
[17] = system: Human immunodeficiency virus 1; experiment: Effective concentration (anti-HIV activity) required to reduce HIV-1 induced cytopathic effect by 50% in MT-4 cells; NA is Not Active.; type: functional, organism-based; settings: mt4
[18] = system: Human immunodeficiency virus 1; experiment: Effective concentration (anti-HIV activity) required to reduce HIV-1 induced cytopathic effect by 50%in CEM cells; NA is Not Active.; type: functional, organism-based; settings: ccrf-cem
[19] = biological target: Human immunodeficiency virus type 1 reverse transcriptase (Human immunodeficiency virus 1) (UniProt Q72547); experiment: HIV-1 reverse transcriptase (RT) enzymatic activity was evaluated using Poly (rC)/oligo (dG) as template/primer and [3H]dGTP as radio labeled substrate;NA is not active.
[20] = biological target: Human immunodeficiency virus type 1 reverse transcriptase (Human immunodeficiency virus 1) (UniProt Q72547); experiment: HIV-1 reverse transcriptase (RT) enzymatic activity was evaluated using Poly (rC)/oligo (dG) as template/primer and [3H]dGTP as radio labelled substrate
[21] = system: Human immunodeficiency virus 1; experiment: Concentration required to reduce CEM cell viability by 50%; settings: Human immunodeficiency virus 1, CCRF-CEM; remark: listed apart in the source
[22] = system: Human immunodeficiency virus 1; experiment: as §1; type: functional, organism-based; settings: Human immunodeficiency virus 1, CCRF-CEM
[23] = system: Human immunodeficiency virus 1; experiment: Effective concentration (anti-HIV activity) required to reduce HIV-1 induced cytopathic effect by 50% in MT-4 cells; NA is Not Active; type: functional, organism-based; settings: mt4

Compound | EC50 [3] | EC50 [4] | IC50 [7] | CC50 [2] | Selectivity index [5] | Selectivity index [6] | other results
Cc1cc(C)nc(N2C(=O)CSC2c2c(F)cccc2F)c1 (stereo unspecified) | 59 nM | 78 nM | 4.12 µM | 43.4 µM | 735 | >=800 | CC50 [10]: ≥ 62.4 µM
c1ccc2[nH]c(-c3cscn3)nc2c1 [THIABENDAZOLE] | 352 nM | 1100 nM | 14.6 µM | 19.2 µM | 54.5 | 45 | EC50 [11]: 3120 nM; EC50 [12]: 15.6 µM; EC50 [13]: 1730 nM; EC50 [14]: 4.16 µM; EC50 [15]: 1390 nM; CC50 [10]: 50 µM; EC50 [16]: 13.8 µM
Cc1ccnc(N2C(=O)CSC2c2c(Cl)cccc2Cl)c1 (stereo unspecified) | 147 nM | – | – | > 368 µM | >2500 | – | –
Cc1ccnc(N2C(=O)CSC2c2c(F)cccc2F)c1 (stereo unspecified) | 248 nM | – | 2.84 µM | 242 µM | 976 | – | –
Cc1cc(C)nc(N2C(=O)CSC2c2c(Cl)cccc2Cl)c1 (stereo unspecified) | 90 nM | 130 nM | – | 64.1 µM | 712 | >=2178 | CC50 [8]: ≥ 283 µM
O=C1CSC(c2c(F)cccc2F)N1c1ccncc1 (stereo unspecified) | – | – | – | 33.9 µM | – | – | EC50 [17]: Not Active; EC50 [18]: Not Active; IC50 [19]: inactive; CC50 [8]: 284 µM
Cc1cccc(N2C(=O)CSC2c2c(F)cccc2F)n1 (stereo unspecified) | 82 nM | – | 2.9 µM | 126 µM | 1536 | – | EC50 [11]: 750 nM; EC50 [12]: 35.9 µM; EC50 [13]: 390 nM; EC50 [14]: ≥ 13 µM; EC50 [15]: 117 nM; EC50 [16]: ≥ 13 µM
O=C1CSC(c2c(Cl)cccc2Cl)N1c1ccncc1 (stereo unspecified) | – | – | – | 10 µM | – | – | EC50 [17]: Not Active
O=C1CSC(c2c(F)cccc2F)N1c1cccnc1 (stereo unspecified) | 95100 nM | – | – | > 427 µM | – | – | Selectivity index [9]: > 4.5
O=C1CSC(c2c(Cl)cccc2Cl)N1c1ccccc1 (stereo unspecified) | 401 nM | – | – | 38.1 µM | 95 | – | –
Cc1cccnc1N1C(=O)CSC1c1c(Cl)cccc1Cl (stereo unspecified) | – | – | – | 42.6 µM | – | – | EC50 [17]: Not Active
O=C1CSC(c2c(F)cccc2F)N1c1cccc(Br)n1 (stereo unspecified) | 30 nM | 30 nM | – | 32 µM | 1066 | >8980 | EC50 [11]: 940 nM; EC50 [12]: > 11 µM; EC50 [13]: 73 nM; EC50 [14]: 1.02 µM; EC50 [15]: 26 nM; IC50 [20]: 910 nM; EC50 [16]: 1.88 µM; CC50 [21]: > 269 µM
Cc1ccc(N2C(=O)CSC2c2c(F)cccc2F)nc1 (stereo unspecified) | 5130 nM | – | – | 202 µM | 39.3 | – | –
Cc1ccc(N2C(=O)CSC2c2c(Cl)cccc2Cl)nc1 (stereo unspecified) | 1410 nM | 1320 nM | 42.4 µM | 24.9 µM | 17.7 | 24 | EC50 [22]: 31.2 µM
O=C1CSC(c2c(Cl)cccc2Cl)N1c1cccnc1 (stereo unspecified) | – | – | – | 23.4 µM | – | – | EC50 [23]: Not Active
Cc1cccc(N2C(=O)CSC2c2c(Cl)cccc2Cl)n1 (stereo unspecified) | 44 nM | – | 2.24 µM | 285 µM | 6470 | – | EC50 [11]: 150 nM; EC50 [12]: ≥ 60 µM; EC50 [13]: 117 nM; EC50 [14]: 16.2 µM; EC50 [15]: 73 nM
Cc1cccnc1N1C(=O)CSC1c1c(F)cccc1F (stereo unspecified) | 53500 nM | – | – | > 319 µM | >6 | – | –

Further lines, with some results ahead:

EC50 [3] | EC50 [4] | IC50 [7] | Compound | CC50 [2] | Selectivity index [5] | Selectivity index [6] | other results
278 nM | 242 nM | – | O=C1CSC(c2c(F)cccc2Cl)N1c1ccccn1 (stereo unspecified) | 41.7 µM | 150 | 791 | CC50 [1]: 191 µM
7190 nM | 4130 nM | 67 µM | O=C1CSC(c2c(F)cccc2F)N1c1ccc(Cl)cn1 (stereo unspecified) | 29.8 µM | 4.2 | 11 | CC50 [8]: 47.1 µM
2130 nM | – | – | O=C1CSC(c2c(F)cccc2Cl)N1c1ccc(Cl)cn1 (stereo unspecified) | 29.4 µM | – | – | Selectivity index [9]: 14
53 nM | 40 nM | 2.85 µM | Cc1cccc(N2C(=O)CSC2c2c(F)cccc2Cl)n1 (stereo unspecified) | 31.9 µM | 601 | 1108 | CC50 [1]: 44.3 µM
99 nM | 108 nM | 4.12 µM | Cc1ccnc(N2C(=O)CSC2c2c(F)cccc2Cl)c1 (stereo unspecified) | 33.9 µM | 343 | 525 | CC50 [10]: 56.7 µM
1510 nM | 1310 nM | 56.6 µM | O=C1CSC(c2c(Cl)cccc2Cl)N1c1ccc(Br)cn1 (stereo unspecified) | 28.2 µM | 18.6 | 20 | CC50 [10]: 26 µM
1240 nM | – | – | O=C1CSC(c2c(F)cccc2Cl)N1c1ccc(Br)cn1 (stereo unspecified) | 30.7 µM | 25 | – | –
1780 nM | 1860 nM | – | O=C1CSC(c2c(Cl)cccc2Cl)N1c1ccc(Cl)cn1 (stereo unspecified) | 19.2 µM | 11 | 17 | CC50 [10]: 31.1 µM
272 nM | 173 nM | – | O=C1CSC(c2c(Cl)cccc2Cl)N1c1cccc(Br)n1 (stereo unspecified) | 67.4 µM | 248 | >1431 | CC50 [1]: > 248 µM
64 nM | – | – | O=C1CSC(c2c(F)cccc2Cl)N1c1cccc(Br)n1 (stereo unspecified) | 30.7 µM | 484 | – | –
855 nM | – | – | O=C1CSC(c2c(F)cccc2F)N1c1ccccn1 (stereo unspecified) | > 427 µM | >500 | – | –
42 nM | – | – | Cc1cc(C)nc(N2C(=O)CSC2c2c(F)cccc2Cl)c1 (stereo unspecified) | 41.6 µM | 986 | – | –
4850 nM | 2500 nM | 61.4 µM | O=C1CSC(c2c(F)cccc2F)N1c1ccc(Br)cn1 (stereo unspecified) | 36.1 µM | 7.4 | 18 | CC50 [8]: 45.8 µM
178 nM | – | – | O=C1CSC(c2c(Cl)cccc2Cl)N1c1ccccn1 (stereo unspecified) | 38.5 µM | 216.3 | – | –

From ChEMBL document CHEMBL1135668, “Design, synthesis, structure-activity relationships, and molecular modeling studies of 2,3-diaryl-1,3-thiazolidin-4-ones as potent anti-HIV agents” (J Med Chem, 2002)
